Assay results as given in US20040029965A1, “Formulations for reducing or eliminating toxicity of enviromental hormones containing ursodeoxycholic acid” (priority 2000, published 2004).

Legend:
Assay type in all cases: in vivo
C57B1/6J mice [1] = experiment: Electron microscopy of testes (cellular microstructures); conditions: TCDD 27.5 μg/kg alone; FIG. 9
Description: (§1) 2,3,7,8-tetrachlorodibenzo-p-dioxin (TCDD) dissolved in toluene (purity of 95% or more as a result of gas chromatography analysis), manufactured by Chem. Services Inc. in USA, was volatilized with nitrogen to obtain powder. The obtained powder was dissolved in a mixed solvent containing acetone and corn oil with a volume ratio of 1:6. The resulting solution each containing 110, 27.5 and 6.9 μg/kg of TCDD was subcutaneously injected to mice at a volume of 5 ml per body weight. […] The mice were supplied with the feed from 10 days before (pre-administration) to 60 days after administration of TCDD (post-administration).
Upon completion of the experiment for 60 days, the experimental animals were fasted for 24 hours and anesthetized with ether. Then, they were abdominally incised and blood was gathered from abdominal vena cava. They were sacrificed by the release of blood. Liver, kidneys, testes and epididymides were extracted and all the extracted organs were weighed. Only the testes were separately kept and observed under optical and electron microscopes. For biochemical finding test, serum was separated from blood with a centrifuge and the separated serum was analyzed with an automated blood biochemical analyzer, Dimension (Dupont, USA). Blood was put to another blood gathering bottle and then, analyzed with an automated blood cell analyzer, Celldyn (Abbott, USA). […]

C57B1/6J mice [2] = experiment: Johnsen's score of the testis tissue (level of spermatogenesis); conditions: score 10 to 1
Description: as §1
Upon completion of the experiment for 60 days, the experimental animals were fasted for 24 hours and anesthetized with ether. Then, they were abdominally incised and blood was gathered from abdominal vena cava. They were sacrificed by the release of blood. Liver, kidneys, testes and epididymides were extracted and all the extracted organs were weighed. Only the testes were separately kept and observed under optical and electron microscopes. For biochemical finding test, serum was separated from blood with a centrifuge and the separated serum was analyzed with an automated blood biochemical analyzer, Dimension (Dupont, USA). Blood was put to another blood gathering bottle and then, analyzed with an automated blood cell analyzer, Celldyn (Abbott, USA).
The extracted testes were fixed in 10% neutralized formalin buffer for 24 hours and washed with the flowing water. It was subsequently dehydrated with ethanol and cleared with xylene and then, embedded with paraffin. It was sectioned with microtome (microm is HM 440E) to a thickness of 2-3 μm and then, double stained with hematoxylin and eosin to observe under an optical microscope.
For evaluation of the level of spermatogenesis, Johnsen's score was determined from 10 to 1 based on the presence or absence of principal cells arranged according to maturation of spermatogenesis. The basis of Johnsen's score in testes was the following:
10: Perfect spermatogenesis having many sperms, organization of embryonic epithelial cells with a constant thickness, and opened lumen
9: Despite many sperms, significant separation of embryonic epithelial cells from the basement membrane and disruption thereof, or loss of lumen
8: Presence of 5 to less than 10 sperms in the section
7: Many sperm cells without sperms
6: 5 to less than 10 sperm cells without sperms
5: Several or many spermatocytes without sperms and sperm cells
4: Less than 5 spermatocytes without sperms and sperm cells
3: Presence of only spermatogonia as reproductive cells
2: Presence of only Sertoli cells without any reproductive cells
1: No cells in the section of seminiferous tubules

C57B1/6J mice [3] = experiment: Changes in body weight of mice after a single subcutaneous injection of TCDD; conditions: for Weight (body weight): at sacrifice
Description: Male C57B1/6J mice of 5 weeks old having the average weight of 18-22 g which had been bred in CRJ (Charles River in Japan) were purchased and used in this example as experimental animals. Those mice were acclimated under the constant breeding condition, i.e. the temperature of 24±1° C., the humidity of 60±10% and the light and darkness cycle of 12 hours, for one week and thereafter, utilized in the experiment.
The Experimental animals were supplied with Purina powdered feed (purchased from Hae Eun Trade) and supplied with water ad libitum. All the animals were weighed twice a week during experimentation.
as §1
The results are expressed as Mean±Standard Deviation values. For statistical analysis of the body weight, feed and water uptake, biochemical findings, hematological findings and the weight of organ in an acute toxicity test, verification was performed by one way analysis of variance (ANOVA) in case of equal distribution. In case significance was recognized in ANOVA, the Student's t-test was performed in the levels of p<0.05 and p<0.01.

In the case of `Clc1cc2c(cc1Cl)Oc1cc(Cl)c(Cl)cc1O2` [TCDD, 2,3,7,8-tetrachlorodibenzo-p-dioxin], the “heads of sperms, electron microphotograph” value (C57B1/6J mice [1]) is reported as “Heads of sperms were frequently observed in cytoplasmic vacuoles of Sertoli cells”, the “Johnsen's score of the testis tissue” value (C57B1/6J mice [2]; TCDD 6.9 μg/kg alone) is reported as 8.06 ± 0.09 and the “Johnsen's score of the testis tissue” value (C57B1/6J mice [2]; TCDD 27.5 μg/kg alone) is reported as 7.42 ± 0.11. The body weight (C57B1/6J mice [3]; TCDD 6.9 μg/kg alone, 0 day) was 20.22 ± 0.31, the body weight (C57B1/6J mice [3]; TCDD 6.9 μg/kg alone, 12 days) was 22.27 ± 0.37 and the body weight (C57B1/6J mice [3]; TCDD 6.9 μg/kg alone, 22 days) was 23.68 ± 0.36. For the same compound, the body weight (C57B1/6J mice [3]; TCDD 6.9 μg/kg alone, 32 days) was 24.37 ± 0.48, the body weight (C57B1/6J mice [3]; TCDD 6.9 μg/kg alone, 39 days) was 25.35 ± 0.66 and the body weight (C57B1/6J mice [3]; TCDD 6.9 μg/kg alone, 50 days) was 27.03 ± 1.35. For the same compound, the body weight (C57B1/6J mice [3]; TCDD 6.9 μg/kg alone, 59 days) was 25.98 ± 1.44, the “Weight (body weight)” value (C57B1/6J mice [3]; TCDD 6.9 μg/kg alone) was 22.96 ± 3.97 g and the body weight (C57B1/6J mice [3]; TCDD 27.5 μg/kg alone, 0 day) was 19.54 ± 0.22. For the same compound, the body weight (C57B1/6J mice [3]; TCDD 27.5 μg/kg alone, 12 days) was 20.91 ± 0.52, the body weight (C57B1/6J mice [3]; TCDD 27.5 μg/kg alone, 22 days) was 19.82 ± 1.14 and the body weight (C57B1/6J mice [3]; TCDD 27.5 μg/kg alone, 32 days) was 18.54 ± 1.16. For the same compound, the body weight (C57B1/6J mice [3]; TCDD 27.5 μg/kg alone, 39 days) was 17.80 ± 1.40, the body weight (C57B1/6J mice [3]; TCDD 27.5 μg/kg alone, 50 days) was 16.74 ± 1.22 and the body weight (C57B1/6J mice [3]; TCDD 27.5 μg/kg alone, 59 days) was 15.72 ± 1.17. The “Weight (body weight)” value (C57B1/6J mice [3]; TCDD 27.5 μg/kg alone) was 16.18 ± 2.51 g, the body weight (C57B1/6J mice [3]; TCDD 110.0 μg/kg alone, 0 day) was 19.36 ± 0.31 and the body weight (C57B1/6J mice [3]; TCDD 110.0 μg/kg alone, 12 days) was 19.96 ± 0.32. It also gave a body weight (C57B1/6J mice [3]; TCDD 110.0 μg/kg alone, 22 days) of 20.02 ± 0.47, a body weight (C57B1/6J mice [3]; TCDD 110.0 μg/kg alone, 32 days) of 19.84 ± 0.55 and a body weight (C57B1/6J mice [3]; TCDD 110.0 μg/kg alone, 39 days) of 17.62 ± 1.14.
